Results taken from paper PMC6947424, “New Targeted Gold Nanorods for the Treatment of Glioblastoma by Photodynamic Therapy” (Journal of Clinical Medicine, 2019).
Residues, ends and D or L forms follow the SMILES beside them. *: point of attachment. Pyropheophorbide(a) = C=Cc1c(C)c2cc3nc(c4c5[nH]c(cc6nc(cc1[nH]2)C(C)=C6CC)c(C)c5C(=O)C4)[C@@H](CCC(=O)*)[C@@H]3C; Hexanoyl(6-maleimido) = O=C1C=CC(=O)N1CCCCCC(=O)*

Tests used:
[1] = tends to aggregate easily; ref [3],[4],[14],[86]; cited from earlier work
[2] = in methanol; ref [16]; cited from earlier work
Description: Fluorescence quantum yields (Φf) were determined using a tetraphenyl porphyrin (TPP) solution as the fluorescence standard (Φf = 0.11 in toluene, taking into account solvent refractive index and absorption efficiencies. For the direct determination of ^1O2 quantum yield (ΦΔ), excitation was performed with a Xe-arc, the light was separated in a SPEX 1680, 0.22 µm double monochromator. Detection at 1270 nm was carried out through a PTI S/N 1565 monochromator and the emission was monitored by a liquid nitrogen cooled Ge-detector (EO-817L, North Coast Scientific Co, OH, USA). Rose Bengal (R ... || These findings are also consistent with the Φf value of Pyro reported by other authors (Φf = 0.3 and in methanol). […] This property can serve in the ...

[3] = Estimation of PS or peptide loading / molar extinction coefficient; type: physicochemical; details: water, 381 nm, from calibration curve
Description: The loading of the PS onto the AuNRs was estimated relying on the molar extinction coefficient (ε) calculated for the MI-K(Pyro)DKPPR-OH conjugate. A calibration curve was developed based on the different concentrations of the conjugate, in water, that correspond to different optical densities (OD). The ε was determined using Beer Lambert’s Law at 381 nm, which constitutes the wavelength of the Soret band of Pyro in water. (3) A = εLC where A, ε, L and C stand for the absorption (OD), molar absorptivity (extinction, L·mol^−1·cm^−1), length (cm) and concentration (mol·L^−1).
The concentration of Pyro in AuNRs@PEG-MI-K(Pyro)DKPPR-OH was calculated for a mass concentration of 1 mg·mL^−1. Moreover, the concentration of the peptide was also determined, as only 1 peptide unit is conjugated to 1 PS molecules. On this basis, the amount of peptide was also estimated to 1 mg·mL^−1 of the functionalized AuNRs.

Structure (SMILES)	solubility in biological media [1]	Φf (fluorescence quantum yield) [2]	molar extinction coefficient (ε) [3] [L/mol/cm]
C=Cc1c(C)c2cc3nc(c4c5[nH]c(cc6nc(cc1[nH]2)C(C)=C6CC)c(C)c5C(=O)C4)[C@@H](CCC(=O)O)[C@@H]3C [Pyro, pyropheophorbide-a, reference compound]	poorly soluble in biological media	0.3	–
C=Cc1c(C)c2cc3nc(c4c5[nH]c(cc6nc(cc1[nH]2)C(C)=C6CC)c(C)c5C(=O)C4)[C@@H](CCC(=O)NCCCC[C@H](NC(=O)CCCCCN1C(=O)C=CC1=O)C(=O)N[C@@H](CC(=O)O)C(=O)N[C@@H](CCCCN)C(=O)N1CCC[C@H]1C(=O)N1CCC[C@H]1C(=O)N[C@@H](CCCNC(=N)N)C(=O)O)[C@@H]3C [MI-K(Pyro)DKPPR-OH] ({Hexanoyl(6-maleimido)}-K(Pyropheophorbide(a))DKPPR-OH)	–	–	64012
